Assays:
[1] = molecular target: T1, ABHD6 (Mus musculus, UniProt Q8R2Y0); test: In vitro competitive activity-based protein profiling (mouse), ABHD6; assay type: biochemical; details: 1 μM inhibitor, mouse brain membrane fraction or cell lysates; read-out: ABHD6 % inh. 1 μM (mouse)
T1 construct: Proteomes (mouse brain membrane fraction or cell lysates); from tissue; host or cells: mouse brain membrane fraction or cell lysates
T1 sequence (Q8R2Y0 1-336): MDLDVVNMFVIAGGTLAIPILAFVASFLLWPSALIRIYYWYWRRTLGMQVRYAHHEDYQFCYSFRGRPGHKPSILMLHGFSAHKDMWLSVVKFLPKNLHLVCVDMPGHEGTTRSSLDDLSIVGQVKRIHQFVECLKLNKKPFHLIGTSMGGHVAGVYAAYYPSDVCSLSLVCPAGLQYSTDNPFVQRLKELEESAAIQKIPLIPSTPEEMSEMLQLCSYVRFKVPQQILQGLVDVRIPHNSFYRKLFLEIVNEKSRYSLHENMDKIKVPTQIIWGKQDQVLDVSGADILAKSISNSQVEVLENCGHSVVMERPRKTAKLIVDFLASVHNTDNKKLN
How it was run: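 Mouse brain membrane proteome or cell lysate (1.0 mg/mL protein) preincubated 30 min at 37 °C with inhibitor, then labelled 30 min at 37 °C with FP-rhodamine probe. Remaining MAGL and ABHD6 activity quantified by in-gel fluorescence band intensity after SDS-PAGE; values are % inhibition at 1 μM.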

[2] = molecular target: T2, MAGL (Mus musculus, UniProt O35678); test: Mouse brain proteomes from inhibitor treated mice, MAGL inhibition; assay type: in vivo; details: 5 mg/kg oral gavage, C57Bl/6J mouse brain, 4 h following administration; read-out: MAGL % inh. 5 mg/kg (mouse)
T2 construct: Proteomes (mouse brain membrane fraction or cell lysates); from tissue; host or cells: mouse brain membrane fraction or cell lysates
T2 sequence (O35678 1-303): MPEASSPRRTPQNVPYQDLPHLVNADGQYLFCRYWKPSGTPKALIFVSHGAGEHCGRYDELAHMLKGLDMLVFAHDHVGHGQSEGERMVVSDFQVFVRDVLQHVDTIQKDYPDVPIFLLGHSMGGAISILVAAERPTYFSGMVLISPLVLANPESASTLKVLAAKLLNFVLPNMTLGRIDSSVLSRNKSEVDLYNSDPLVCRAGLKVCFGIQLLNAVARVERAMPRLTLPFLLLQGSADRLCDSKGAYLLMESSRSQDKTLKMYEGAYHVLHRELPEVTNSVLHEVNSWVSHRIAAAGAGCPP
Description: Preparation of Mouse Brain Proteomes from Inhibitor Treated Mice.
Inhibitors were administered to wild-type C57Bl/6J by oral gavage in a vehicle of polyethylene glycol. Each animal was sacrificed 4 h following administration and brain proteomes were prepared and analyzed according to previously established methods (See Niphakis, M. J., et al. (2011) ACS Chem. Neurosci. and Long, J. Z., et al. Nat. Chem. Biol. 5:37-44).

[3] = molecular target: T2, MAGL; test: In vitro competitive activity-based protein profiling (mouse), MAGL; assay type: biochemical; details: for inhibition at 1 µM: 1 μM inhibitor, mouse brain membrane fraction or cell lysates, read-out: MAGL % inh. 1 μM (mouse); for IC50: mouse proteome
How it was run: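 Mouse brain membrane fraction or cell lysate proteomes (50 μL, 1.0 mg/mL total protein) were preincubated with inhibitors at varying concentrations for 30 min at 37° C. FP-Rh (1.0 μL, 50 μM in DMSO) was then added for a further 30 min at 37° C. Samples were quenched with 4× SDS loading buffer and resolved by SDS-PAGE. MAGL activity was quantified from fluorescent gel band intensity using ImageJ 1.49 k.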

[4] = molecular target: T3, MAGL (Homo sapiens, UniProt Q99685); test: In vitro competitive activity-based protein profiling (human), MAGL; assay type: biochemical; details: for inhibition at 1 µM: 1 μM inhibitor, human proteome, 30 min preincubation at 37° C, read-out: MAGL % inh. 1 μM (human); for IC50: human PC3
T3 construct: Proteomes (human prefrontal cortex or cell membrane fractions); from tissue
T3 sequence (Q99685 1-303): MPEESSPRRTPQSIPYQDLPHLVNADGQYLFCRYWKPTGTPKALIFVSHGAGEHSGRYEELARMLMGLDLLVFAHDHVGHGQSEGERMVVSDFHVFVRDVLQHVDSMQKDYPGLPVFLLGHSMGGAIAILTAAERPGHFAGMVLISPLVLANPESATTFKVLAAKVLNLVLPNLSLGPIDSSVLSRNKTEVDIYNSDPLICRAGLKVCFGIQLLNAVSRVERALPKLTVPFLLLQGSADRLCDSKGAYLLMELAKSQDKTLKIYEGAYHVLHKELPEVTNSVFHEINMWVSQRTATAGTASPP
How it was run: (§1)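 Human prefrontal cortex or cell membrane proteomes (1.0-2.0 mg/mL protein) preincubated 30 min at 37° C with inhibitor, then labeled 30 min RT with FP-Rh or JW912 probe. After SDS-PAGE, activity taken from fluorescent band intensity for each enzyme.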

[5] = molecular target: T4, ABHD6 (Homo sapiens, UniProt Q9BV23); test: In vitro competitive activity-based protein profiling (human), ABHD6; assay type: biochemical; details: human PC3
T4 construct: Proteomes (human prefrontal cortex or cell membrane fractions); endogenous in cells; human prefrontal cortex
T4 sequence (Q9BV23 1-337): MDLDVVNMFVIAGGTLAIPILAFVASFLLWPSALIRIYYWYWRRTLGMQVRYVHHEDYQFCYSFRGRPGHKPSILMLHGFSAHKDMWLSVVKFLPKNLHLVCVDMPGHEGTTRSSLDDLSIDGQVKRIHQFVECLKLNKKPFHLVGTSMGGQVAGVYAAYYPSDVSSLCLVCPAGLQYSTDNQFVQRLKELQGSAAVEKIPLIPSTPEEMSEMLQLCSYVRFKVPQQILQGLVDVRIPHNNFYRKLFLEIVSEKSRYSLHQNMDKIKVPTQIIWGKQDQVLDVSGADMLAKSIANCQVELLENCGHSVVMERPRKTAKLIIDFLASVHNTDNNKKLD
How it was run: as §1

Row | SMILES | inhibition at 1 µM [1] [%] | inhibition at 5 mg/kg [2] [%] | inhibition at 1 µM [3] [%] | inhibition at 1 µM [4] [%] | IC50 [4] [µM] | IC50 [5] [µM] | IC50 [3] [µM]
1 | O=C(O)[C@@H]1CC(c2cc(C(F)(F)F)ccc2CN2CCN(C(=O)OC(C(F)(F)F)C(F)(F)F)CC2)CN1 (stereo partly drawn) [Example 7, (2S)-4-(2-((4-(((1,1,1,3,3,3-Hexafluoropropan-2-yl)oxy)carbonyl)piperazin-1-yl)methyl)-5-(trifluoromethyl)phenyl)pyrrolidine-2-carboxylic Acid] | 25 to 50 | 25 to 50 | ≥ 75 | ≥ 75 | ≤ 0.1 | 1 to 10 | –
2 | Cc1cc(C(=O)O)sc1-c1cc(C(F)(F)F)ccc1CN1CCN(C(=O)OC(C(F)(F)F)C(F)(F)F)CC1 [Example 9, 5-(2-((4-(((1,1,1,3,3,3-Hexafluoropropan-2-yl)oxy)carbonyl)piperazin-1-yl)methyl)-5-(trifluoromethyl)phenyl)-4-methylthiophene-2-carboxylic Acid] | 50 to 75 | 25 to 50 | ≥ 75 | ≥ 75 | ≤ 0.1 | 1 to 10 | –
3 | O=C(O)c1csc(-c2cc(C(F)(F)F)ccc2CN2CCN(C(=O)OC(C(F)(F)F)C(F)(F)F)CC2)c1 [Example 10, 5-(2-((4-(((1,1,1,3,3,3-Hexafluoropropan-2-yl)oxy)carbonyl)piperazin-1-yl)methyl)-5-(trifluoromethyl)phenyl)thiophene-3-carboxylic Acid] | ≥ 75 | 0 to 25 | ≥ 75 | ≥ 75 | ≤ 0.1 | 1 to 10 | –
4 | O=C(O)Cn1ccc(-c2cc(Cl)ccc2CN2CCN(C(=O)OC(C(F)(F)F)C(F)(F)F)CC2)n1 [Example 12, 2-(3-(5-Chloro-2-((4-(((1,1,1,3,3,3-hexafluoropropan-2-yl)oxy)carbonyl)piperazin-1-yl)methyl)phenyl)-1H-pyrazol-1-yl)acetic Acid] | 0 to 25 | 0 to 25 | ≥ 75 | ≥ 75 | ≤ 0.1 | 0.1 to 1 | –
5 | O=C(O)Cn1ccc(-c2cc(F)ccc2CN2CCN(C(=O)OC(C(F)(F)F)C(F)(F)F)CC2)n1 [Example 13, 2-(3-(5-Fluoro-2-((4-(((1,1,1,3,3,3-hexafluoropropan-2-yl)oxy)carbonyl)piperazin-1-yl)methyl)phenyl)-1H-pyrazol-1-yl)acetic Acid] | 0 to 25 | 0 to 25 | ≥ 75 | ≥ 75 | ≤ 0.1 | 1 to 10 | –
6 | O=C(O)CN1CCC2(CC1)CN(c1cc(C(F)(F)F)ccc1CN1CCN(C(=O)OC(C(F)(F)F)C(F)(F)F)CC1)C2 [Example 17, 2-(2-(2-((4-(((1,1,1,3,3,3-Hexafluoropropan-2-yl)oxy)carbonyl)piperazin-1-yl)methyl)-5-(trifluoromethyl)phenyl)-2,7-diazaspiro[3.5]nonan-7-yl)acetic Acid] | 0 to 25 | 0 to 25 | ≥ 75 | ≥ 75 | ≤ 0.1 | 1 to 10 | –
7 | O=C(O)CN1CCC2(CC1)CCN(c1cc(C(F)(F)F)ccc1CN1CCN(C(=O)OC(C(F)(F)F)C(F)(F)F)CC1)C2 [Example 19, 2-(2-(2-((4-(((1,1,1,3,3,3-Hexafluoropropan-2-yl)oxy)carbonyl)piperazin-1-yl)methyl)-5-(trifluoromethyl)phenyl)-2,8-diazaspiro[4.5]decan-8-yl)acetic Acid] | 0 to 25 | 0 to 25 | ≥ 75 | ≥ 75 | ≤ 0.1 | 1 to 10 | ≤ 0.1
8 | O=C(O)CN1CCCC12CCN(c1cc(C(F)(F)F)ccc1CN1CCN(C(=O)OC(C(F)(F)F)C(F)(F)F)CC1)CC2 [Example 20, 2-(8-(2-((4-(((1,1,1,3,3,3-Hexafluoropropan-2-yl)oxy)carbonyl)piperazin-1-yl)methyl)-5-(trifluoromethyl)phenyl)-1,8-diazaspiro[4.5]decan-1-yl)acetic Acid] | 0 to 25 | 0 to 25 | ≥ 75 | ≥ 75 | ≤ 0.1 | 1 to 10 | –

The next lines start with the values.

Row | inhibition at 1 µM [1] [%] | inhibition at 5 mg/kg [2] [%] | inhibition at 1 µM [3] [%] | inhibition at 1 µM [4] [%] | IC50 [4] [µM] | IC50 [5] [µM] | IC50 [3] [µM] | SMILES
9 | 25 to 50 | ≥ 75 | ≥ 75 | ≥ 75 | ≤ 0.1 | 1 to 10 | – | O=C(O)c1ccsc1-c1cc(C(F)(F)F)ccc1CN1CCN(C(=O)OC(C(F)(F)F)C(F)(F)F)CC1 [Example 8, 2-(2-((4-(((1,1,1,3,3,3-Hexafluoropropan-2-yl)oxy)carbonyl)piperazin-1-yl)methyl)-5-(trifluoromethyl)phenyl)thiophene-3-carboxylic Acid]
10 | 0 to 25 | 0 to 25 | ≥ 75 | ≥ 75 | ≤ 0.1 | 1 to 10 | – | O=C(O)CN1CC2CN(c3cc(C(F)(F)F)ccc3CN3CCN(C(=O)OC(C(F)(F)F)C(F)(F)F)CC3)CC2C1 (stereo not drawn) [Example 15, 2-(5-(2-((4-(((1,1,1,3,3,3-Hexafluoropropan-2-yl)oxy)carbonyl)piperazin-1-yl)methyl)-5-(trifluoromethyl)phenyl)hexahydropyrrolo[3,4-c]pyrrol-2(1H)-yl)acetic Acid]
11 | 50 to 75 | 0 to 25 | ≥ 75 | ≥ 75 | ≤ 0.1 | 1 to 10 | ≤ 0.1 | O=C(O)CN1CCC2(CCN(c3cc(C(F)(F)F)ccc3CN3CCN(C(=O)OC(C(F)(F)F)C(F)(F)F)CC3)CC2)C1 [Example 18, 2-(8-(2-((4-(((1,1,1,3,3,3-Hexafluoropropan-2-yl)oxy)carbonyl)piperazin-1-yl)methyl)-5-(trifluoromethyl)phenyl)-2,8-diazaspiro[4.5]decan-2-yl)acetic Acid]
12 | 0 to 25 | 0 to 25 | ≥ 75 | ≥ 75 | ≤ 0.1 | 1 to 10 | ≤ 0.1 | O=C(O)CN1CC2(CCN(c3cc(C(F)(F)F)ccc3CN3CCN(C(=O)OC(C(F)(F)F)C(F)(F)F)CC3)CC2)C1 [Example 21, 2-(7-(2-((4-(((1,1,1,3,3,3-Hexafluoropropan-2-yl)oxy)carbonyl)piperazin-1-yl)methyl)-5-(trifluoromethyl)phenyl)-2,7-diazaspiro[3.5]nonan-2-yl)acetic Acid]
